Results reported in US20050053668A1, “Skeletally targeted nanoparticles” (Southwest Research Institute, priority 2003, published 2005).

What was measured:
[1] = format: physicochemical
Protocol: Lovastatin was encapsulated in MBP-lipid conjugate micelles at ratios ranging from about 1:1 to 1:50 mol:mol lovastatin:lipid using the phase separation technique. All preparations initially produced clear, colorless solutions, indicating complete solubilization of lovastatin by the lipid. However, over time, usually within about 24 hours, needle-like crystals were observed on the surface of the fluid. […] The crystals were confirmed to be lovastatin by HPLC analysis.

unloaded bones = settings: infusion; cited from earlier work
myeloma cell = settings: in vitro; cited from earlier work
panel of tumor cells = settings: cited from earlier work
[2] = cited from earlier work
hindlimb unloaded rats = settings: cited from earlier work

CC[C@H](C)C(=O)O[C@H]1C[C@@H](C)C=C2C=C[C@H](C)[C@H](CC[C@@H]3C[C@@H](O)CC(=O)O3)[C@H]21 [lovastatin]
amount of stabilized lovastatin after ageing [1]: increased slightly | lovastatin stabilized in micelles [1]: about 0.03 μg/μg of lipid | lovastatin stabilized in micelles, molar ratio [1]: ~1:5 mol:mol lovastatin:lipid | lovastatin encapsulated before free drug precipitates ([1]; micelles of MBP-based ligand-phospholipid conjugate, FIG. 9): about 0.03 μg of lovastatin/μg of lipid | time until needle-like lovastatin crystals were observed ([1]; preparations 1:1 to 1:50 mol:mol lovastatin:lipid): ≤ 24 h

IGF-1: insulin-like growth factor, regulates bone formation
dose required to demonstrate any protective effect against unloading (unloaded bones): 2 mg/kg/day

CC(C)C[C@H](NC(=O)[C@H](Cc1ccccc1)NC(=O)c1cnccn1)B(O)O [PS-341]
inhibition of myeloma cell growth and survival (myeloma cell): potent inhibitor | cytotoxicity (panel of tumor cells): cytotoxic | side-effects in clinical use [2]: thrombocytopenia, peripheral neuropathy, hypotension, and, in severe cases, cardiovascular toxicity

TGF-β
effect on bone formation in control animals (hindlimb unloaded rats; infusion 2 μg/kg/day, control animals): has no effect on bone formation | effect on unloading-induced bone changes (hindlimb unloaded rats; infusion 2 μg/kg/day, hindlimb unloading in rats): corrects the decrease in bone mass, calcium content, osteoblast number and mineralization rate | effect on indices of bone resorption (hindlimb unloaded rats; infusion, normal and unloaded rats): decreases the indices of bone resorption
